Assay results from publication PMC10096180, “Half-Sandwich Type Platinum-Group Metal Complexes of C-Glucosaminyl Azines: Synthesis and Antineoplastic and Antimicrobial Activities” (Molecules, 2023).
Read-outs that look alike come from different tables or passages of the source.

Experiments:
[1] = system: A2780 cells; assay: SRB binding assay, cytostasis, 48 h treatment; assay type: cell-based; details: for A2780 SRB Max Inhibition: up to 100 μM, ND = not detectable
Experimental: (§1) The complexes described above are intended to replace registered platinum complexes. Platinum complexes constitute the core of the chemotherapy regimen used in ovarian cancer; therefore, we used a cellular model of ovarian cancer, A2780, and primary human dermal fibroblasts as models of non-transformed cells (controls). For the characterization of the complexes, we used an MTT assay after 4 h of treatment for the detection of early toxicity and an SRB assay 48 h after treatment for the detection of cytostasis.
(§2) An SRB assay measures protein content of cells in correlation with the cell number in an assay well and can therefore be used to assess cell proliferation or long-term cytostasis. Cells were seeded in 96-well plates the day before the assay. Cells were treated with the compounds for 48 h. Then medium was removed, and cells were fixed with 10% trichloroacetic acid. Fixed cells were washed in distilled water 3 times, followed by staining with SRB (0.4 m/V% dissolved in 1% acetic acid) for 10 min. Stained cells were washed in 1% acetic acid 5 times; acetic acid was removed, and cells were left to dry. Protein-bound SRB was released by adding 100 μL 10 mM Tris base. Plates were measured in a plate photometer (Thermo Scientific Multiscan GO spectrophotometer, Waltham, MA, USA) at 540 nm. On each plate, wells were designed to contain vehicle-treated cells. In calculations, the readings for these wells were considered to be 1, and all readings were expressed relative to these values.
(§3) Statistical analysis was performed using version 8.0.1 of GraphPad Prism. Values were tested for normal distribution using the Shapiro–Wilk normality test. Nonlinear regression was performed using the built-in “[Inhibitor] vs. response—Variable slope (four parameters), least square fit” utility of GraphPad, which yielded IC50 and Hill slope values if the sigmoid curves reached a plateau of inhibition and there was no decrease between two subsequent data points or when inhibition was over 90%. In other cases, the percentage of inhibition was taken for the maximum concentration (100 μM).

[2] = system: methicillin-resistant Staphylococcus aureus (MRSA) clinical isolates; assay: Broth microdilution MIC, clinical MRSA isolates; assay type: cell-based; details: 24 h, 0.08–40 μM
Experimental: (§4) We used a set of clinical isolates of S. aureus and E. faecium that were collected at the Medical Center of the University of Debrecen (Hungary) between 1 January 2018. and 31 December 2020. The clinical isolates were identified using a Microflex MALDI-TOF mass spectrometer (Bruker, Billerica, MA, USA). The antibiotic susceptibility of the isolates was tested following the European Committee on Antimicrobial Susceptibility Testing (EUCAST) guidelines, which were valid at the time of collection.
(§5) Microdilution experiments were performed according to the standards of EUCAST [85]. The bacterial isolates to be tested were grown on Mueller–Hinton agar plates. The inoculum density of bacteria was set at 5.0 × 10^5 CFU/mL in microtiter plates in a final volume of 200 μL Mueller–Hinton broth. The tested concentration range was 0.08–40 μM (10 concentrations, twofold serial dilutions), and a drug-free growth control and an inoculum-free negative control were included. The inoculated plates were incubated for 24 h at 37 °C, then visually assessed. Minimum inhibitory concentration (MIC) was defined as the lowest concentration with a 50%≤ inhibitory effect compared to the growth control. All experiments were performed at least twice in duplicate.

[3] = system: Staphylococcus aureus (ATCC29213); assay: Broth microdilution MIC, reference strain; assay type: cell-based; details: 0.08–40 μM, read-out: MIC S. aureus ATCC 29213
Experimental: (§6) The reference strains of Staphylococcus aureus (ATCC29213) and Enterococcus faecalis (ATCC29212) were purchased from the ATCC (Manassas, VA, USA).
as §5

[4] = system: Enterococcus faecalis (ATCC29212); assay: Broth microdilution MIC, reference strain; assay type: cell-based; details: 24 h, tested range 0.08–40 μM, read-out: MIC E. faecalis ATCC 29,212
Experimental: as §6, §5

[5] = system: primary human dermal fibroblasts; assay: MTT reduction assay, early toxicity, 4 h treatment; assay type: cell-based; details: up to 100 μM
Experimental: as §1
(§7) An MTT reduction assay was measures the activity of mitochondrial complex I and can be used to detect toxicity. The assay was performed in a manner similar to that described in [84]. Briefly, cells were plated in 96-well plates the day before the assay. Cells were treated with the compounds for 4 h; then, MTT was added to a 0.5 mg/mL final concentration, and cells were incubated at 37 °C in a cell incubator for 40–60 min as a function of the cell line being assessed. Culture medium was removed, the reduced MTT dye was dissolved in dimethyl-sulfoxide, and plates were measured in a plate photometer (Thermo Scientific Multiscan GO spectrophotometer, Waltham, MA, USA) at 540 nm. On each plate, wells were designed to contain vehicle-treated cells. In calculations, the readings for these wells were considered to 1, and all readings were expressed relative to these values.
as §3

[6] = system: A2780 cells; assay: MTT reduction assay, early toxicity, 4 h treatment; assay type: cell-based
Experimental: as §1, §7, §3

[7] = Distribution coefficient (logD), n-octanol-PBS; assay type: physicochemical; details: n-octanol-PBS (pH = 7.4) system
Experimental: The logD values of the newly synthesized complexes were determined according to a procedure described in our previous publications. page 64: Ir-7b +1.17 Rh-7b +1.41 Ru-7c +1.31 Os-7c +1.59 Ir-7c +1.40 Rh-7c +1.13 Ru-7d +1.26 Os-7d +1.42 Ir-7d +1.30 Rh-7d +1.04 Ru-7e +2.22 Os-7e +2.21 Ir-7e +1.39 Rh-7e +1.66 *logD was determined in an n-octanol-PBS (pH = 7.4) system 64 (14 pictures or pasted objects on this page, not shown here)

[8] = system: vancomycin-resistant Enterococcus (VRE) clinical isolates; assay: Broth microdilution MIC, clinical VRE isolates; assay type: cell-based, E. faecium; details: 24 h, 0.08–40 μM
Experimental: as §4, §5

[9] = system: primary human dermal fibroblasts; assay: SRB binding assay, cytostasis, 48 h treatment; assay type: cell-based; details: for Fibroblast SRB Max Inhibition: up to 100 μM, ND = not detectable
Experimental: as §1, §2, §3

[10] = clinical isolate 20,426 MRSA, read-out: MIC 20,426 MRSA
[11] = clinical isolate 24,035 MRSA, read-out: MIC 24,035 MRSA
[12] = clinical isolate 24,268 MRSA, read-out: MIC 24,268 MRSA
[13] = clinical isolate 24,272 MRSA, read-out: MIC 24,272 MRSA
[14] = clinical isolate 24,328 MRSA, read-out: MIC 24,328 MRSA
[15] = clinical isolate 24,408 MRSA, read-out: MIC 24,408 MRSA
[16] = inhibition at maximum concentration (100 μM) where no plateau, ND = not detectable
[17] = clinical isolate 25,051 VRE, read-out: MIC 25,051 VRE
[18] = clinical isolate 25,498 VRE, read-out: MIC 25,498 VRE
[19] = clinical isolate 27,085 VRE, read-out: MIC 27,085 VRE

Row | IC50 [1] [µM] | MIC [2, 10] [µM] | MIC [2, 11] [µM] | MIC [2, 12] [µM] | MIC [2, 13] [µM] | MIC [2, 14] [µM] | MIC [2, 15] [µM] | MIC ([3]; 24 h) [µM] | MIC [4] [µM] | logD [7] | MIC [8, 17] [µM] | MIC [8, 18] [µM] | MIC [8, 19] [µM] | SMILES | A2780 SRB Max Inhibition [1] [%] | Fibroblast MTT Max Inhibition [5] [%] | A2780 MTT Max Inhibition [6, 16] [%] | Fibroblast SRB Max Inhibition [9] [%] | IC50 [6] [µM] | further results
1 | 17.8 | 10 | 10 | 10 | 20 | 20 | 10 | 20 | 10 | 1.39 | 10 | 10 | 10 | Cc1ccc(C(C)C)cc1.F[P-](F)(F)(F)(F)F.NC1C(c2cccnn2)OC(COC(=O)c2ccccc2)C(OC(=O)c2ccccc2)C1OC(=O)c1ccccc1.[Cl][Ru+] (mixture of isomers) [Ru-7b] | >90 | 47.04 | 68.22 | – | – | –
2 | – | – | – | – | – | – | – | – | – | – | – | – | – | N[C@@H]1[C@@H](OC(=O)c2ccccc2)[C@H](OC(=O)c2ccccc2)[C@@H](COC(=O)c2ccccc2)O[C@H]1c1ccccn1 [Complex 7a, 2-(2′-Amino-2′-deoxy-3′,4′,6′-tri-O-benzoyl-β-D-glucopyranosyl)pyridine] | 76.24 | 27.02 | – | 26.00 | – | MIC ([2]; Staphylococcus aureus, clinical isolate 20,426 MRSA, read-out: MIC 20,426 MRSA): > 40 µM; MIC ([2]; Staphylococcus aureus, clinical isolate 24,035 MRSA, read-out: MIC 24,035 MRSA): > 40 µM; MIC ([2]; Staphylococcus aureus, clinical isolate 24,268 MRSA, read-out: MIC 24,268 MRSA): > 40 µM; MIC ([2]; Staphylococcus aureus, clinical isolate 24,272 MRSA, read-out: MIC 24,272 MRSA): > 40 µM; MIC ([2]; Staphylococcus aureus, clinical isolate 24,328 MRSA, read-out: MIC 24,328 MRSA): > 40 µM; MIC ([2]; Staphylococcus aureus, clinical isolate 24,408 MRSA, read-out: MIC 24,408 MRSA): > 40 µM; MIC ([3]; Staphylococcus aureus, ATCC29213, 24 h): > 40 µM; MIC ([4]; Enterococcus faecalis): > 40 µM; inhibition at 100 µM ([6]; Homo sapiens, inhibition at maximum concentration (100 μM) where no plateau, ND = not detectable, read-out: A2780 MTT Max Inhibition): 18.6%; MIC ([8]; Enterococcus, clinical isolate 25,051 VRE, read-out: MIC 25,051 VRE): > 40 µM; MIC ([8]; Enterococcus, clinical isolate 25,498 VRE, read-out: MIC 25,498 VRE): > 40 µM; MIC ([8]; Enterococcus, clinical isolate 27,085 VRE, read-out: MIC 27,085 VRE): > 40 µM
3 | 1.69 | 10 | 20 | 5 | 10 | 10 | 10 | 20 | 20 | 3.18 | 10 | 10 | 10 | Cc1c(C)c(C)[c-](C)c1C.F[P-](F)(F)(F)(F)F.N[C@@H]1[C@@H](OCc2ccccc2)[C@H](OCc2ccccc2)[C@@H](COCc2ccccc2)O[C@H]1c1ccccn1.[Cl][Ir+2] [Ir-3a] | >90 | – | 82.71 | – | – | IC50 ([9]; read-out: Fibroblast SRB IC50): 14.1 µM
4 | 6.2 | 10 | 10 | 10 | 10 | 20 | 10 | 20 | 40 | 1.08 | 40 | 40 | 40 | Cc1c(C)c(C)[c-](C)c1C.F[P-](F)(F)(F)(F)F.N[C@@H]1[C@@H](OC(=O)c2ccccc2)[C@H](OC(=O)c2ccccc2)[C@@H](COC(=O)c2ccccc2)O[C@H]1c1ccccn1.[Cl][Ir+2] [Ir-7a] | >90 | 65.18 | >90 | 56.31 | 11.6 | –
5 | 6.83 | 40 | 40 | 40 | 40 | 40 | 40 | 40 | >40 | 2.64 | 40 | 40 | 40 | Cc1ccc(C(C)C)cc1.F[P-](F)(F)(F)(F)F.N[C@@H]1[C@@H](OCc2ccccc2)[C@H](OCc2ccccc2)[C@@H](COCc2ccccc2)O[C@H]1c1cnccn1.[Cl][Os+] [Os-3d] | >90 | 73.24 | 86.83 | – | 32.3 | –
6 | 3.77 | 20 | 20 | 20 | 20 | 20 | 20 | 20 | 20 | 2.06 | 20 | 20 | 20 | Cc1ccc(C(C)C)cc1.F[P-](F)(F)(F)(F)F.N[C@@H]1[C@@H](OCc2ccccc2)[C@H](OCc2ccccc2)[C@@H](COCc2ccccc2)O[C@H]1c1cnccn1.[Cl][Ru+] [Ru-3d] | >90 | 80.31 | >90 | – | 19.3 | –
